The text below walks through data of US20190264146A1, “An Antimicrobial Composition” (priority 2015, published 2019).

Common to all, as to experiment: Microdilution test (MIC/MBC)
Common to all, as to assay type: cell-based
Common to all, as to details: lower line of pair, sub-cultivation 72 h
A general note: Broth dilution looks for growth in wells or tubes with falling amounts of substance.

One assay relates to S. epidermidis. The protocol: (§1) Minimum inhibitory concentration (MIC) is the lowest concentration of an antimicrobial that will inhibit the visible growth of a microorganism after overnight incubation. Minimum inhibitory concentrations are important in diagnostic laboratories to confirm resistance of microorganisms to an antimicrobial agent and to monitor the activity of new antimicrobial agents. A MIC is the most basic laboratory measurement of the activity of an antimicrobial agent against an organism.
(§2) The minimum inhibitory and bactericidal concentrations (MICs and MBCs) can be determined using 96-well microtitre plates. The bacterial suspension is adjusted with sterile saline to a concentration of 1.0×10^5 cfu/m L. Compounds to be investigated are dissolved in broth LB medium (100 μL) with bacterial inoculum (1.0×10^4 cfu per well) to achieve the wanted concentrations (0.02-15.0 μL g/mL). The microplates are incubated for 24 h at 28° C. […] The MBCs are determined by serial sub-cultivation of 2 μL into microtitre plates containing 100 μL of broth per well and further incubation for 72 h. The lowest concentration with no visible growth is defined as the MBC, indicating 99.5% killing of the original inoculum. The optical density of each well is measured at a wavelength of 655 nm by Microplate manager 4.0 (Bio-Rad Laboratories) and compared with a blank and the positive control. Streptomycin is used as a positive control using the same concentrations as in the disc diffusion test. Two replicates were done for each oil and each component.

A further assay concerns B. subtilis. As to the method:
as §1, §2

A further assay has as its system L. monocytogenes. The protocol:
as §1, §2

In a further assay the test system is S. enteritidis. As to the method:
as §1, §2

Another assay concerns S. typhimurium. The protocol:
as §1, §2

Another assay relates to E. cloacae. As to the method: as §1, §2
The test system of another assay is M. flavus. As to the method:
as §1, §2

A further assay concerns E. coli. The protocol:
as §1, §2

Another assay concerns S. aureus. The protocol:
as §1, §2

A further assay concerns P. mirabilis. The protocol:
as §1, §2

A further assay relates to P. aeruginosa. The protocol: as §1, §2

As to `CC12CCC(CC1)C(C)(C)O2` [1,8 cineole (eucalyptol)], the MBC with S. epidermidis is 5.0 μL g/mL; in the assay on B. subtilis it was 5.0 μL g/mL; against L. monocytogenes, 6.0 μL g/mL; against S. enteritidis it was 6.0 μL g/mL; with S. typhimurium, 6.0 μL g/mL; with E. cloacae, 8.0 μL g/mL. Besides, the MBC in the assay on M. flavus was found to be 5.0 μL g/mL; in the assay on E. coli, 8.0 μL g/mL; in the assay with S. aureus, 6.0 μL g/mL; against P. mirabilis it was 8.0 μL g/mL; in the assay on P. aeruginosa, 9.0 μL g/mL.

As to `C=C(C)[C@H]1CC=C(C)CC1` [Limonene], the MBC against S. epidermidis is 8.0 μL g/mL; against B. subtilis, 7.0 μL g/mL; in the assay on L. monocytogenes it was 10.0 μL g/mL; with S. enteritidis it was 10.0 μL g/mL; in the assay on S. typhimurium, 10.0 μL g/mL; in the assay with E. cloacae, 10.0 μL g/mL. For the same compound, the MBC was 7.0 μL g/mL against M. flavus; 12.0 μL g/mL against E. coli; 8.0 μL g/mL against S. aureus; 15.0 μL g/mL against P. mirabilis; 15.0 μL g/mL in the assay with P. aeruginosa.

Consider `C=C1CCC2CC1C2(C)C` (stereo not drawn) [beta pinene], for which the MBC was determined as 6.5 μL g/mL with S. epidermidis; 6.0 μL g/mL against B. subtilis; 10.0 μL g/mL in the assay with L. monocytogenes; 9.0 μL g/mL against S. enteritidis; 9.0 μL g/mL in the assay with S. typhimurium; 10.0 μL g/mL against E. cloacae. In addition, the MBC against M. flavus amounted to 5.5 μL g/mL; in the assay on E. coli, 10.0 μL g/mL; against S. aureus, 7.5 μL g/mL; against P. mirabilis, 10.0 μL g/mL; in the assay on P. aeruginosa it was 13.0 μL g/mL.
